# According to patent publication US9408854B2, “Methods and systems for pharmacogenomic treatment of cardiovascular conditions” (ROSTAQUO S.P.A., priority 2009, dated 2016):
# Test system: hypertensive patients
# Assay: Pharmacogenomic study: change of office systolic blood pressure (DSBP5_0) after 5 weeks of rostafuroxin vs placebo, by genotype
# Type: in vivo, human
# Method: A pharmacogenomic study was performed to ascertain the effect of genetic variations on an individual response to rostafuroxin. The sample for the pharmacogenomic study consisted of 342 individuals that were genotyped with the Human1M array from Illumina using Human1M Duo CHIP genotyping Bead Chip according to procedure described in [Ref. 10, 11, 12]. Among the individuals, 169 were administered the placebo treatment and 173 the active drug (rostafuroxin) in the first period (5 weeks) with demographics as in [Ref 13]. In particular, patients were randomized to one of the following oral doses of rostafuroxin: 0.05, 0.15, 0.5, 1.5, or 5 mg/day for 5 weeks. Each dose had to be compared to a placebo in a crossover design.
# For the above sample of individuals a genetic association analysis, was performed to associate the phenotype of the tested individuals with the SNPs detected in the individuals. The selected phenotype of interest was the blood pressure response. The SNPs selected for detection were the 1111170 SNPs on autosomal chromosomes of the individual.
# The genetic analysis was performed according to a quantitative genetic association design where the phenotype of interest is a quantitative variable (QT), and the variables (factors) affecting the distribution of the phenotype of interest are SNPs, therapy (placebo, rostafuroxin) and the SNP*therapy interaction.
# In particular, the quantitative phenotype selected for the statistical analyses was the difference in mmHg between the office Systolic Blood Pressure (SBP) at the end of first treatment period (SBP_5) and the office Systolic Blood Pressure at baseline after one month of run-in (SBP_0) and is herein also identified as DSBP5_0. The selected QT phenotype and other factors affecting distribution of the phenotype of interest were then analyzed according to the following quantitative trait interaction test Phenotype=SNP+therapy+SNP*therapy as illustrated in further details below.
# In particular, in Table 2 the descriptive statistics of DSBP5_0 for the entire sample and for the patients treated with placebo and rostafuroxin are listed. The rather modest basal level of SBP can be explained in view of the recruitment of patients with “mild” hypertension (SBP range 140-179 mmHg), required by the inclusion of a placebo arm.
# Those SNPs were further selected to identify the genotypes with the largest response to rostafuroxin compared to placebo by performing a Statistical ANOVA analysis using STATA software in placebo and rostafuroxin with DSBP5_0 as dependent variable and the candidate significant SNPs as independent variables. In particular, to select the genotypes of the interactions between two SNPs with the largest response to rostafuroxin compared to placebo, the Applicants performed an ANOVA statistics in placebo and rostafuroxin with DSBP5_0 as dependent variable and the interaction s between SNPs as independent variables. The Applicants report an example of this procedure in FIG. 5: interaction between rs8899 and rs4678. The Applicants selected the interaction between the genotype AA of rs8899 and the genotype BB of rs4678 because it presents the greatest remarkable decrement in the therapy group and not in the placebo group.
# In particular, to select the genotypes with the largest response to rostafuroxin compared to placebo, the Applicants performed an ANOVA statistics (oneway) in placebo and rostafuroxin with DSBP5_0 as dependent variable and the significant SNPs as independent variables.
# [1] = GWS SNP ga001619 (PIGR) genotype 1
# [2] = GWS SNP rs188334 (FAIM3) genotype 1
# [3] = GWS SNP rs721207 (LOC131691) genotype 3
# [4] = GWS SNP rs748140 (PIGR) genotype 1
# [5] = GWS SNP rs1110446 (TRIM31) genotype 1
# [6] = GWS SNP rs1110446 (TRIM31) genotype 2
# [7] = GWS SNP rs1362126 (HLA-F) genotype 3
# [8] = GWS SNP rs1901139 (LOC644192) genotype 3
# [9] = GWS SNP rs1998394 (LOC728316) genotype 3
# [10] = GWS SNP rs2275531 (PIGR) genotype 3
# [11] = GWS SNP rs2345088 (KCNS3) genotype 1
# [12] = GWS SNP rs2345088 (KCNS3) genotype 2
# [13] = GWS SNP rs2427832 (LOC649458) genotype 2
# [14] = GWS SNP rs2461911 (LOC389970) genotype 1
# [15] = GWS SNP rs2517718 (HLA-A) genotype 1
# [16] = GWS SNP rs2555500 (LOC389174) genotype 1
# [17] = GWS SNP rs2743951 (RP3-377H14.5) genotype 3
# [18] = GWS SNP rs3087816 (SLC30A7) genotype 2
# [19] = GWS SNP rs3893464 (HCG9) genotype 1
# [20] = GWS SNP rs4710592 (RCADH5) genotype 3
# [21] = GWS SNP rs4998662 (FAM46A) genotype 2
# [22] = GWS SNP rs5013093 (HLA-G) genotype 1
# [23] = GWS SNP rs6457110 (HCG9) genotype 1
# [24] = GWS SNP rs6718282 (KCNS3) genotype 2
# [25] = GWS SNP rs7216331 (COX10) genotype 2
# [26] = GWS SNP rs7521668 (DPH5) genotype 1
# [27] = GWS SNP rs7521668 (DPH5) genotype 2
# [28] = GWS SNP rs8179654 (LOC642727) genotype 3
smiles,measurement,setting,value
"C[C@]12CC[C@H](O)C[C@H]1CC[C@@H]1[C@@H]2CC[C@]2(C)[C@@](O)(c3ccoc3)CC[C@]12O [rostafuroxin, 17β-(3-furyl)-5β-androstane-3β,14β,17α-triol]","higher response in blood pressure drop, low doses vs high doses",0.05 to 0.50 mg/day vs 1.5 to 5 mg/day,+50%
same,DELTA delta Therapy placebo,[1],9.252 mmHg
same,DSBP5_0 therapy,[1],−13.615 mmHg
same,DELTA delta Therapy placebo,[2],8.146 mmHg
same,DSBP5_0 therapy,[2],−11.82 mmHg
same,DELTA delta Therapy placebo,[3],6.934 mmHg
same,DSBP5_0 therapy,[3],−11.58 mmHg
same,DELTA delta Therapy placebo,[4],6.506 mmHg
same,DSBP5_0 therapy,[4],−11.28 mmHg
same,DELTA delta Therapy placebo,[5],20.59 mmHg
same,DSBP5_0 therapy,[5],−16.37 mmHg
same,DELTA delta Therapy placebo,[6],3.54 mmHg
same,DSBP5_0 therapy,[6],−10.13 mmHg
same,DELTA delta Therapy placebo,[7],4.93 mmHg
same,DSBP5_0 therapy,[7],−10.29 mmHg
same,DELTA delta Therapy placebo,[8],10.52 mmHg
same,DSBP5_0 therapy,[8],−12.11 mmHg
same,DELTA delta Therapy placebo,[9],5.788 mmHg
same,DSBP5_0 therapy,[9],−10.51 mmHg
same,DELTA delta Therapy placebo,[10],7.817 mmHg
same,DSBP5_0 therapy,[10],−12.18 mmHg
same,DSBP5_0 therapy,GWS SNP rs2326912 (TMEM200A) genotype 1,−11.7 mmHg
same,DELTA delta Therapy placebo,[11],33.93 mmHg
same,DSBP5_0 therapy,[11],−30.5 mmHg
same,DELTA delta Therapy placebo,[12],3.512 mmHg
same,DSBP5_0 therapy,[12],−10.69 mmHg
same,DELTA delta Therapy placebo,[13],6.845 mmHg
same,DSBP5_0 therapy,[13],−10.38 mmHg
same,DELTA delta Therapy placebo,[14],22.82 mmHg
same,DSBP5_0 therapy,[14],−20.6 mmHg
same,DELTA delta Therapy placebo,[15],6.212 mmHg
same,DSBP5_0 therapy,[15],−11.83 mmHg
same,DELTA delta Therapy placebo,[16],5.2 mmHg
same,DSBP5_0 therapy,[16],−10.52 mmHg
same,DELTA delta Therapy placebo,[17],5.62 mmHg
same,DSBP5_0 therapy,[17],−11.17 mmHg
same,DELTA delta Therapy placebo,[18],7.021 mmHg
same,DSBP5_0 therapy,[18],−13.044 mmHg
same,DELTA delta Therapy placebo,[19],9.016 mmHg
same,DSBP5_0 therapy,[19],−10.99 mmHg
same,DELTA delta Therapy placebo,[20],20.075 mmHg
same,DSBP5_0 therapy,[20],−23.825 mmHg
same,DELTA delta Therapy placebo,[21],13.54 mmHg
same,DSBP5_0 therapy,[21],−15.81 mmHg
same,DELTA delta Therapy placebo,[22],22.09 mmHg
same,DSBP5_0 therapy,[22],−20.49 mmHg
same,DELTA delta Therapy placebo,[23],5.862 mmHg
same,DSBP5_0 therapy,[23],−10.35 mmHg
same,DSBP5_0 therapy,GWS SNP rs6718282 (KCNS3) genotype 1,−41.3 mmHg
same,DELTA delta Therapy placebo,[24],13.825 mmHg
same,DSBP5_0 therapy,[24],−12.625 mmHg
same,DELTA delta Therapy placebo,[25],13.91 mmHg
same,DSBP5_0 therapy,[25],−15.81 mmHg
same,DELTA delta Therapy placebo,[26],28.95 mmHg
same,DSBP5_0 therapy,[26],−25 mmHg
same,DELTA delta Therapy placebo,[27],7.021 mmHg
same,DSBP5_0 therapy,[27],−13.044 mmHg
same,DELTA delta Therapy placebo,[28],8.442 mmHg
same,DSBP5_0 therapy,[28],−10.95 mmHg
same,DELTA delta Therapy placebo,GWS SNP rs9361863 (LOC728360) genotype 1,19.6 mmHg
